Data set [1] in a line: Prodrug half-life in vitro, buffer method. The class given is physicochemical. The conditions noted are these: 25 mM phosphate buffer pH 7.4, 37° C., 1.0 mg/mL; UPLC_A, or UPLC_B for compounds marked *; read-out: T½ in buffer (converted). The method, then:
(§1) The purpose of this example is to test the in vitro half-lives (T½) of the GLP-1 prodrugs of the invention, in comparison to conceptually different prodrugs. In what follows two in vitro methods are described, viz. a method conducted in buffer, and a method conducted in plasma.
Buffer: 25 mM Phosphate (Ionic strength: 154 mM, pH 7.4 at 37° C.)
NaH2PO4.2H2O (1.95 g, 12.5 mmol) and NaCl (2.61 g, 44.7 mmol) were dissolved in millipore water (approximately 450 mL) and adjusted to pH=7.44 at approximately 20° C. with concentrated NaOH and 1 M NaOH. Water was added to 500.00 mL.
The compound to be tested was dissolved in buffer to a concentration of 1.0 mg/mL and incubated at 37° C. Samples were taken at adequate intervals and the % parent drug compared to prodrug formed as function of time was evaluated by the UPLC method as referred to in Table 1 by comparing the areas under the curves for the two corresponding peaks. These UPLC methods are described in the general experimental section above (UPLC_A, and UPLC_B).
(§2) The half life of the prodrug (T½) was calculated from the slope of a linear fit to the curve of ln(% prodrug (Y)) as a function of time (t), as follows: Y=÷αt+k Math. 1 T½=ln(2)/α Math. 2 Plasma Method Buffer: 200 mM Phosphate, pH 7.4 at 37° C.
The resulting half-lives are set out in Table 1 below. For comparison, the T½ in buffer of native GLP-1(7-37) (His7 variant of SEQ ID NO: 1) was 13 minutes (0.2 hours).

Data set [2] in a line: Prodrug half-life in vitro, plasma method (minipig heparin plasma). The format is in vitro ADME. The conditions noted are these: minipig heparin plasma 800 μL + 200 μL 200 mM phosphate pH 7.4, 37° C.; UPLC_A, or UPLC_B for compounds marked *; read-out: T½ in plasma (converted). The method, then: as §1, §2
NaH2PO4.2H2O (15.61 g, 100 mmol) was dissolved in milliQ water (approximately 450 mL) and adjusted to pH=7.44 at approximately 20° C. with concentrated NaOH (aq) and 1 M NaOH (aq). Water was added to 500.00 mL.
Serum: Minipig Serum, Heparin-Plasma
Fresh blood was tapped from minipig into 9 mL LH lithium heparin Vacuette tubes from Greiner bio-one (catalogue number 455084). After cooling on ice it was centrifuged (10 min, 4° C., 3000 rpm/1942G) and the supernatant isolated and kept at −18° C. before use.
100 nmol of the compound to be tested was dissolved in 200 μL buffer, added to 800 μL plasma (centrifuged), and incubated at 37° C. Samples (50 μL) were drawn at appropriate intervals into 150 μL absolute EtOH. After a short stirring the sample was centrifuged and the supernatant transferred to the UPLC vial (10 μL injection).
The % parent drug compared to prodrug formed as a function of time was evaluated by UPLC, and the half-life calculated, both in the same way as described above under the Buffer method.

The results in this text go back to patent publication US9452225B2, “GLP-1 prodrugs” (Novo Nordisk A/S, priority 2012, dated 2016).

Numbered stars: 1 amine (or outer) side, 2 acyl side, 3 side chain; on linkers, the order of the positions; unused ones are H or OH. Square brackets hold non-standard residues; d marks the D form. Side chains are listed from the residue outwards. Peptide text beside a SMILES is read from it. * marks the point of attachment. Decanoyl(10-(4-HOOC-PhO)) = O=C(O)c1ccc(OCCCCCCCCCC(=O)*)cc1; Lac(3-(imidazol-4-yl)) = O=C(O)[C@@H](O)Cc1c[nH]cn1; γGlu = O=C(O)[C@H](CCC(=O)[*:2])N[*:1]; NMeI = CC[C@H](C)[C@H](NC)C(=O)O; NMeV = CN[C@H](C(=O)O)C(C)C; AEEA = NCCOCCOCC(=O)O

For `CC[C@H](C)[C@H](NC(=O)[C@H](Cc1ccccc1)NC(=O)[C@H](CCC(=O)O)NC(=O)[C@H](CCCNC(=N)N)NC(=O)[C@@H](NC(=O)[C@H](C)NC(=O)[C@H](CCC(N)=O)NC(=O)[C@H](CCC(=O)O)NC(=O)[C@H](CCC(=O)O)NC(=O)[C@H](CC(C)C)NC(=O)[C@H](Cc1ccc(O)cc1)NC(=O)[C@H](CCCCNC(=O)COCCOCCNC(=O)COCCOCCNC(=O)CC[C@H](NC(=O)CCCCCCCCCOc1ccc(C(=O)O)cc1)C(=O)O)NC(=O)[C@H](CO)NC(=O)[C@@H](NC(=O)[C@H](CC(=O)O)NC(=O)[C@H](CO)NC(=O)[C@@H](NC(=O)[C@H](Cc1ccccc1)NC(=O)[C@@H](NC(=O)CNC(=O)[C@H](CCC(=O)O)NC(=O)[C@H](C)NC(=O)[C@H](Cc1c[nH]cn1)OC(=O)[C@@H](NC(=O)[C@@H](NC)C(C)C)C(C)C)[C@@H](C)O)[C@@H](C)O)C(C)C)C(C)C)C(=O)N[C@@H](C)C(=O)N[C@@H](CCCCNC(=O)COCCOCCNC(=O)COCCOCCNC(=O)CC[C@H](NC(=O)CCCCCCCCCOc1ccc(C(=O)O)cc1)C(=O)O)C(=O)N[C@@H](CC(C)C)C(=O)N[C@H](C(=O)N[C@@H](CCCNC(=N)N)C(=O)NCC(=O)N[C@@H](CCCNC(=N)N)C(=O)NCC(=O)O)C(C)C` [Example 2] (H-[NMeV]V[Lac(3-(imidazol-4-yl))]AEGTFTSDVSK([AEEA-AEEA-γGlu-Decanoyl(10-(4-HOOC-PhO))])YLEEQAVREFIAK([AEEA-AEEA-γGlu-Decanoyl(10-(4-HOOC-PhO))])LVRGRG-OH), in data set [1], the half-life at 1 mg/mL is 2550 min. The half-life in data set [2] is 1650 min.

For `CC[C@H](C)[C@H](NC(=O)[C@H](Cc1ccccc1)NC(=O)[C@H](CCC(=O)O)NC(=O)[C@H](CCCNC(=N)N)NC(=O)[C@@H](NC(=O)[C@H](C)NC(=O)[C@H](CCC(N)=O)NC(=O)[C@H](CCC(=O)O)NC(=O)[C@H](CCC(=O)O)NC(=O)[C@H](CC(C)C)NC(=O)[C@H](Cc1ccc(O)cc1)NC(=O)[C@H](CCCCNC(=O)COCCOCCNC(=O)COCCOCCNC(=O)CC[C@H](NC(=O)CCCCCCCCCOc1ccc(C(=O)O)cc1)C(=O)O)NC(=O)[C@H](CO)NC(=O)[C@@H](NC(=O)[C@H](CC(=O)O)NC(=O)[C@H](CO)NC(=O)[C@@H](NC(=O)[C@H](Cc1ccccc1)NC(=O)[C@@H](NC(=O)CNC(=O)[C@H](CCC(=O)O)NC(=O)[C@H](C)NC(=O)[C@H](Cc1c[nH]cn1)OC(=O)[C@@H](NC(=O)[C@@H](N)C(C)C)C(C)C)[C@@H](C)O)[C@@H](C)O)C(C)C)C(C)C)C(=O)N[C@@H](C)C(=O)N[C@@H](CCCCNC(=O)COCCOCCNC(=O)COCCOCCNC(=O)CC[C@H](NC(=O)CCCCCCCCCOc1ccc(C(=O)O)cc1)C(=O)O)C(=O)N[C@@H](CC(C)C)C(=O)N[C@H](C(=O)N[C@@H](CCCNC(=N)N)C(=O)NCC(=O)N[C@@H](CCCNC(=N)N)C(=O)NCC(=O)O)C(C)C` [Example 2a] (H-VV[Lac(3-(imidazol-4-yl))]AEGTFTSDVSK([AEEA-AEEA-γGlu-Decanoyl(10-(4-HOOC-PhO))])YLEEQAVREFIAK([AEEA-AEEA-γGlu-Decanoyl(10-(4-HOOC-PhO))])LVRGRG-OH), the half-life at 1 mg/mL in data set [1] is 630 min. In addition, in data set [2], the half-life was 276 min.

Take `CC[C@H](C)[C@H](N)C(=O)N[C@H](C(=O)O[C@@H](Cc1c[nH]cn1)C(=O)N[C@@H](C)C(=O)N[C@@H](CCC(=O)O)C(=O)NCC(=O)N[C@H](C(=O)N[C@@H](Cc1ccccc1)C(=O)N[C@H](C(=O)N[C@@H](CO)C(=O)N[C@@H](CC(=O)O)C(=O)N[C@H](C(=O)N[C@@H](CO)C(=O)N[C@@H](CCCCNC(=O)COCCOCCNC(=O)COCCOCCNC(=O)CC[C@H](NC(=O)CCCCCCCCCOc1ccc(C(=O)O)cc1)C(=O)O)C(=O)N[C@@H](Cc1ccc(O)cc1)C(=O)N[C@@H](CC(C)C)C(=O)N[C@@H](CCC(=O)O)C(=O)N[C@@H](CCC(=O)O)C(=O)N[C@@H](CCC(N)=O)C(=O)N[C@@H](C)C(=O)N[C@H](C(=O)N[C@@H](CCCNC(=N)N)C(=O)N[C@@H](CCC(=O)O)C(=O)N[C@@H](Cc1ccccc1)C(=O)N[C@H](C(=O)N[C@@H](C)C(=O)N[C@@H](CCCCNC(=O)COCCOCCNC(=O)COCCOCCNC(=O)CC[C@H](NC(=O)CCCCCCCCCOc1ccc(C(=O)O)cc1)C(=O)O)C(=O)N[C@@H](CC(C)C)C(=O)N[C@H](C(=O)N[C@@H](CCCNC(=N)N)C(=O)NCC(=O)N[C@@H](CCCNC(=N)N)C(=O)NCC(=O)O)C(C)C)[C@@H](C)CC)C(C)C)C(C)C)[C@@H](C)O)[C@@H](C)O)C(C)C` [Example 3a] (H-IV[Lac(3-(imidazol-4-yl))]AEGTFTSDVSK([AEEA-AEEA-γGlu-Decanoyl(10-(4-HOOC-PhO))])YLEEQAVREFIAK([AEEA-AEEA-γGlu-Decanoyl(10-(4-HOOC-PhO))])LVRGRG-OH): the half-life at 1 mg/mL in data set [1] was 450 min. The half-life in data set [2] is 300 min.

As to `CC[C@H](C)[C@H](NC)C(=O)N[C@H](C(=O)O[C@@H](Cc1c[nH]cn1)C(=O)N[C@@H](C)C(=O)N[C@@H](CCC(=O)O)C(=O)NCC(=O)N[C@H](C(=O)N[C@@H](Cc1ccccc1)C(=O)N[C@H](C(=O)N[C@@H](CO)C(=O)N[C@@H](CC(=O)O)C(=O)N[C@H](C(=O)N[C@@H](CO)C(=O)N[C@@H](CCCCNC(=O)COCCOCCNC(=O)COCCOCCNC(=O)CC[C@H](NC(=O)CCCCCCCCCOc1ccc(C(=O)O)cc1)C(=O)O)C(=O)N[C@@H](Cc1ccc(O)cc1)C(=O)N[C@@H](CC(C)C)C(=O)N[C@@H](CCC(=O)O)C(=O)N[C@@H](CCC(=O)O)C(=O)N[C@@H](CCC(N)=O)C(=O)N[C@@H](C)C(=O)N[C@@H](C)C(=O)N[C@@H](CCCCNC(=O)COCCOCCNC(=O)COCCOCCNC(=O)CC[C@H](NC(=O)CCCCCCCCCOc1ccc(C(=O)O)cc1)C(=O)O)C(=O)N[C@@H](CCC(=O)O)C(=O)N[C@@H](Cc1ccccc1)C(=O)N[C@H](C(=O)N[C@@H](C)C(=O)N[C@@H](Cc1c[nH]c2ccccc12)C(=O)N[C@@H](CC(C)C)C(=O)N[C@H](C(=O)N[C@@H](CCC(N)=O)C(=O)NCC(=O)N[C@@H](CCCNC(=N)N)C(=O)NCC(=O)O)C(C)C)[C@@H](C)CC)C(C)C)[C@@H](C)O)[C@@H](C)O)C(C)C` [Example 5], the results for the half-life in data set [1] and in data set [2] were 2270 min and 1930 min, respectively.

`CC[C@H](C)[C@H](NC)C(=O)N[C@H](C(=O)O[C@@H](Cc1c[nH]cn1)C(=O)N[C@@H](C)C(=O)N[C@@H](CCC(=O)O)C(=O)NCC(=O)N[C@H](C(=O)N[C@@H](Cc1ccccc1)C(=O)N[C@H](C(=O)N[C@@H](CO)C(=O)N[C@@H](CC(=O)O)C(=O)N[C@H](C(=O)N[C@@H](CO)C(=O)N[C@@H](CCCCNC(=O)COCCOCCNC(=O)COCCOCCNC(=O)CC[C@H](NC(=O)CCCCCCCCCOc1ccc(C(=O)O)cc1)C(=O)O)C(=O)N[C@@H](Cc1ccc(O)cc1)C(=O)N[C@@H](CC(C)C)C(=O)N[C@@H](CCC(=O)O)C(=O)N[C@@H](CCC(=O)O)C(=O)N[C@@H](CCC(N)=O)C(=O)N[C@@H](C)C(=O)N[C@H](C(=O)N[C@@H](CCCNC(=N)N)C(=O)N[C@@H](CCC(=O)O)C(=O)N[C@@H](Cc1ccccc1)C(=O)N[C@H](C(=O)N[C@@H](C)C(=O)N[C@@H](CCCCNC(=O)COCCOCCNC(=O)COCCOCCNC(=O)CC[C@H](NC(=O)CCCCCCCCCOc1ccc(C(=O)O)cc1)C(=O)O)C(=O)N[C@@H](CC(C)C)C(=O)N[C@H](C(=O)N[C@@H](CCCNC(=N)N)C(=O)NCC(=O)N[C@@H](CCCNC(=N)N)C(=O)NCC(=O)O)C(C)C)[C@@H](C)CC)C(C)C)C(C)C)[C@@H](C)O)[C@@H](C)O)C(C)C` [Example 3] (H-[NMeI]V[Lac(3-(imidazol-4-yl))]AEGTFTSDVSK([AEEA-AEEA-γGlu-Decanoyl(10-(4-HOOC-PhO))])YLEEQAVREFIAK([AEEA-AEEA-γGlu-Decanoyl(10-(4-HOOC-PhO))])LVRGRG-OH): the half-life at 1 mg/mL in data set [1] was 2310 min. For the same compound, in data set [2], the half-life was 1540 min.
